For one series, the target named is T1, HIV protease (Human immunodeficiency virus type 1 group M subtype B, UniProt P04585).
T1 construct: HIV protease is diluted in the assay buffer to a final enzyme concentration of 12.3 nanomolar, based on a molecular weight of 10,780
In words: biochemical. How it is done: The enzyme method is described below. […] The positive control is MVT-101 (Miller, M. et al, Science, 246, 1149 (1989)] The assay conditions are as follows:
Assay buffer: 20 mM sodium phosphate, pH 6.4
The above described substrate is dissolved in DMSO, then diluted 10 fold in assay buffer. Final substrate concentration in the assay is 80 μM.
The final concentration of DMSO is 14% and the final concentration of glycerol is 18%. The test compound is dissolved in DMSO and diluted in DMSO to 10× the test concentration; 10 μl of the enzyme preparation is added, the materials mixed and then the mixture is incubated at ambient temperature for 15 minutes. The enzyme reaction is initiated by the addition of 40 μl of substrate. The increase in fluorescence is monitored at 4 time points (0, 8, 16 and 24 minutes) at ambient temperature. Each assay is carried out in duplicate wells.

A short description of series [1]: Intrinsic toxicity of test compound in CEM cells without virus (MTT). The note with it: human, Table 16, read-out: TD50 (the source's name). The format is cell-based. From the text: Methods, 20, 309-321 (1988).
Setting [2] is: Table 15A, @ 1 uM, read-out: % inhib.
[3] abbreviates: Table 15A, @ 10 uM, read-out: % inhib.
The mark [4] stands for this setting: Table 15A, second part (Ex., Table, Entry).
The mark [5] stands for this setting: Table 5B, @ 1 μM, read-out: % inhibition.

Where two headings read alike, the source gives them in different places.

A word on the IC50: it is the concentration needed to halve the response being measured.

Consider `CC(C)CCN(C[C@@H](O)[C@H](Cc1ccccc1)NC(=O)OCc1ccccc1)S(=O)(=O)C(F)(F)F` [Table 1A Entry 50], for which, at HIV protease (setting [2]), the inhibition at 1 µM is 42%. In addition, the inhibition at 10 µM at HIV protease (setting [3]) came to 89%.

At HIV protease (Table 15A, @ 0.1 uM), `CC(C)CCN(C[C@@H](O)[C@H](Cc1ccccc1)NC(=O)C(NC(=O)CN(C)C)C(C)(C)C)S(C)(=O)=O` (some centres unmarked) [Table 3 Entry 2] yielded an inhibition at 0.1 µM of 38%. For the same compound, the inhibition at 1 µM at HIV protease (setting [2]) was found to be 90%.

`COc1ccc(S(=O)(=O)N(CC(C)C)C[C@@H](O)[C@H](Cc2ccccc2)NC(=O)c2ccccc2)cc1` [Table 16 Entry 28] had an IC50 against HIV protease (Table 16, enzyme assay) of 14 nM.

On HIV protease (Table 15A, first part), `CC(C)CCN(C[C@@H](O)[C@H](Cc1ccccc1)NC(=O)OCc1ccccc1)S(=O)(=O)c1ccccc1` [drawing 314] yielded an IC50 of 16 nM.

As to `CC(C)CN(C[C@@H](O)[C@H](Cc1ccccc1)NC(=O)OCc1ccccc1)S(=O)(=O)c1ccc(F)cc1` [Table 1a Entry 7], at HIV protease (setting [4]), the IC50 came to 9.6 nM.

On to `CC(C)CCN(C[C@@H](O)[C@H](Cc1ccccc1)NC(=O)OCc1ccccc1)S(=O)(=O)CCl` [Table 1A Entry 52], for which, at HIV protease (setting [2]), the inhibition at 1 µM was determined as 39%. In addition, the inhibition at 10 µM on HIV protease (setting [3]) stood at 81%.

Take `COc1ccc(S(=O)(=O)N(CC(C)C)CC(O)C(Cc2ccccc2)NC(=O)c2ccccc2S(C)(=O)=O)cc1` (centres unmarked) [Table 5A Entry 17]: the inhibition at 10 µM at HIV protease (Table 5B, @ 10 μM, read-out: % inhibition) came out at 59%.

Take `CCC(C)[C@H](NC(=O)CN(C)C)C(=O)N[C@@H](Cc1ccccc1)[C@H](O)CN(CCC(C)C)S(=O)(=O)c1ccccc1` (some centres unmarked) [Table 16 Entry 14]: the CC50 in series [1] is 55000 nM.

Turning to `COc1ccc(S(=O)(=O)N(CC(C)C)CC(O)C(Cc2ccccc2)NC(=O)c2ccc(CS(C)(=O)=O)cc2)cc1` (centres unmarked) [Table 5A Entry 22], the inhibition at 1 µM on HIV protease (setting [5]) came to 63%.

In turn, `CC(C)CCN(C[C@@H](O)[C@H](Cc1ccccc1)NC(=O)[C@H](CC(N)=O)NC(=O)c1ccc2ccccc2n1)S(C)(=O)=O` [Table 16 Entry 4] displayed an IC50 against HIV protease (Table 16, enzyme assay) of 27 nM.

As to `COc1ccc(S(=O)(=O)N(CC(C)C)CC(O)C(Cc2ccccc2)NC(=O)c2ccccc2OC)cc1` (centres unmarked) [Table 5A Entry 29], it took 190 nM to reach half-maximal inhibition at HIV protease (Table 5B) (IC50).

In turn, `CCc1ccccc1C(=O)N[C@@H](Cc1ccccc1)[C@H](O)CN(CC(C)C)S(=O)(=O)c1ccc(OC)cc1` [Table 16 Entry 31] displayed an IC50 against HIV protease (Table 16, enzyme assay) of 10 nM.

As to `CC(C)CN(C[C@@H](O)[C@H](Cc1ccccc1)NC(=O)OCc1ccccc1)S(C)(=O)=O` [Table 1A Entry 51], the inhibition at 1 µM at HIV protease (setting [2]) worked out at 31%. The inhibition at 10 µM at HIV protease (setting [3]) worked out at 76%.

In the case of `CNC(=O)C[C@H](NC(=O)c1ccc2ccccc2n1)C(=O)N[C@@H](Cc1ccccc1)[C@H](O)CN(CCC(C)C)S(=O)(=O)c1ccccc1` [Table 16 Entry 7], the CC50 in series [1] amounted to 39 nM.

On to `CC(C)CCN(C[C@@H](O)[C@H](Cc1ccccc1)NC(=O)C(N)C(C)(C)C)S(=O)(=O)c1ccccc1` (some centres unmarked) [Table 11 Entry 1], for which, at HIV protease (setting [4]), the IC50 amounted to 130 nM.

Turning to `CC(C)CCN(C[C@@H](O)[C@H](Cc1ccccc1)NC(=O)OCc1ccccc1)S(=O)(=O)c1ccccc1` [Table 1A Entry 39], the IC50 against HIV protease (setting [4]) amounted to 16 nM.

For the compound `COc1ccc(S(=O)(=O)N(CC(C)C)CC(O)C(Cc2ccccc2)NC(=O)c2ccccc2CS(C)(=O)=O)cc1` (centres unmarked) [Table 5A Entry 20], the inhibition at 1 µM on HIV protease (setting [5]) turned out to be 85%.

Consider `CC(C)CCN(C[C@@H](O)[C@H](Cc1ccccc1)NC(=O)OCc1ccccc1)S(=O)(=O)Cc1ccccc1` [Table 1a Entry 6], for which the inhibition at 10 µM at HIV protease (setting [3]) is 36%.

Take `CC(C)CCN(C[C@@H](O)[C@H](Cc1ccccc1)NC(=O)[C@@H](NC(=O)CBr)C(C)(C)C)S(=O)(=O)c1ccccc1` [Table 12 Entry 10]: the IC50 on HIV protease (setting [4]) was determined as 3.3 nM.

On HIV protease (setting [4]), `CC(C)CCN(C[C@@H](O)[C@H](Cc1ccccc1)NC(=O)OCc1ccccc1)S(=O)(=O)c1ccc2ccccc2c1` [Table 1a Entry 4] yielded an IC50 of 16 nM.

As for `CC(C)CCN(C[C@@H](O)[C@H](Cc1ccccc1)NC(=O)OCc1ccccc1)S(C)(=O)=O` [Table 1A Entry 41], the inhibition at 1 µM at HIV protease (setting [2]) turned out to be 24%. Also, on HIV protease (setting [3]), the inhibition at 10 µM is 74%.

For the compound `COc1ccc(S(=O)(=O)N(CC(C)C)C[C@@H](O)[C@H](Cc2ccccc2)NC(=O)c2ccccc2Cl)cc1` [Table 16 Entry 30], the midpoint of inhibition against HIV protease (Table 16, enzyme assay), the IC50, lay at 6 nM.

For `CC(C)CCN(C[C@@H](O)[C@H](Cc1ccccc1)NC(=O)[C@@H](NC(=O)CN(C)C)C(C)(C)C)S(C)(=O)=O` [Table 16 Entry 6], the CC50 in series [1] was 425 nM.

On HIV protease (Table 16, enzyme assay), `CC(C)CCN(C[C@@H](O)[C@H](Cc1ccccc1)NC(=O)OCc1ccccc1)S(=O)(=O)c1ccccc1` [drawing 326] displayed an IC50 of 16 nM.

Consider `CC(C)CCN(C[C@@H](O)[C@H](Cc1ccccc1)NC(=O)[C@H](CC(N)=O)NC(=O)c1ccc2ccccc2n1)S(C)(=O)=O` [Table 15A Entry 4], for which, at HIV protease (Table 15A, first part), it took 27 nM to reach half-maximal inhibition (IC50).

For `CC(C)CCN(C[C@@H](O)[C@H](Cc1ccccc1)NC(=O)OCc1ccccc1)S(=O)(=O)c1ccc(F)cc1` [Table 1a Entry 1], the IC50 against HIV protease (setting [4]) stood at 11 nM.

In the case of `CC(C)CCN(C[C@@H](O)[C@H](Cc1ccccc1)NC(=O)OCc1ccccc1)S(=O)(=O)c1ccccc1[N+](=O)[O-]` [Table 1a Entry 3], the inhibition at 1 µM at HIV protease (setting [2]) was 38%. Further, the inhibition at 10 µM at HIV protease (setting [3]) came to 79%.

`COc1ccc(S(=O)(=O)N(CC(C)C)CC(O)C(Cc2ccccc2)NC(=O)c2ccc3[nH]ccc3c2)cc1` (centres unmarked) [Table 5A Entry 5] displayed an IC50 against HIV protease (Table 5B) of 26 nM.

Consider `CC(C)CCN(C[C@@H](O)[C@H](Cc1ccccc1)NC(=O)c1ccccc1)S(=O)(=O)c1ccccc1` [Table 16 Entry 8], for which the CC50 in series [1] is 24 nM.

Values taken from patent US5830897A, “α- and β-amino acid hydroxyethylamino sulfonamides useful as retroviral protease inhibitors” (G. D. Searle & Co., priority 1995, dated 1998).
